These results are taken from patent US5017619A, “Phenethanolamine derivatives” (Hoffmann-La Roche Inc., priority 1985, dated 1991).

Read-outs that look alike come from different tables or passages of the source.

For one test, the system named is male albino rats. Briefly: Activity on oxygen consumption. The class given is in vivo. The note with it: rat, per os, corrected for placebo group; for response vs control in vivo at 1 µM, 1 µmol/kg / response vs control in vivo at 3 µM, 3 µmol/kg / response vs control in vivo at 0.3 µM, 0.3 µmol/kg: po; for response vs control in vivo at 1 µM, 1 µmol/kg: 1 μM/kg; for response vs control in vivo at 3 µM, 3 µmol/kg: 3 μM/kg. How it is done:
(1) Activity on oxygen consumption
Male albino rats weighing 160-180 g were placed in metabolic cages after fasting for 24 hours. The cages were ventilated with a constant 6 liter room air/minute which was equilibrated at a dew point of 11° C. Samples of the spent air were collected during periods of in each case 14 minutes after again equilbrating and the oxygen content and CO2 content were analyzed. After an adaptation time of 4 hours the animals, divided into groups of 6, received either placebo (5% gum arabic) or the test substance (suspended in 5% gum arabic) per os. Thereafter, the determinations were carried out for a period of 12 hours. In Table I there is given the percentage of the average oxygen consumption after medication during the first 3 hours and the entire test duration (12 hours) of the oxygen consumption of the adaptation period, corresponding corrections for variations in the placebo group having been taken into consideration.

For test [1], the system named is streptozotocin-diabetic rats. The test can be described thus: Activity on the urine glucose of streptozotocin-diabetic rats. Type of test: in vivo, albino rats. Particulars: oral, 90 μM/kg per day, 2nd week of treatment. The protocol: (3) Activity on the urine glucose of streptozotocin-diabetic rats
A diabetes was produced in female albino rats (weight 130-140 g) by the subcutaneous injection of streptozotocin (70 mg/kg). The diabetic animals were adapted to an amount of feed limited to 15 g/day/animal. The test compound (suspended in 5% gum arabic) or placebo (5% gum arabic) was administered orally twice daily. The urine was collected for 6 days a week and urine glucose was determined. The urine glucose excretion of the treated animals during the 2nd week of treatment is given in Table III as a percentage of the control value.

Test [2] deals with female hyperglycaemic fat mice. Briefly: Activity on urine glucose and blood glucose and the formation of brown adipose tissue (obese-hyperglycaemic mice). Type of test: in vivo. Particulars: oral, percentage of control value; for Blood glucose / Brown adipose tissue (weight of interscapular brown adipose tissue): end of 15-day test. The protocol:
(2) Activity on urine glucose and blood glucose and the formation of brown adipose tissue
Female hyperglycaemic fat mice were adapted to an amount of feed limited to 3 g/day/animal. The test compounds (suspended in 5% gum arabic) or placebo (5% gum arabic) were administered orally twice daily during 15 days. Urine was collected for 6 days a week and urine glucose was determined. Blood glucose and the weight of the interscapular brown adipose tissue were determined at the end of the test.
The test results are given in Table II as a percentage of the control value.

The mark [3] stands for this setting: 3 h, 1st-3rd hour, read-out: O2 consumption, % of value of the pre-period, 1st-3rd hour.
Setting [4] is: 12 h, 1st-12th hour, read-out: O2 consumption, % of value of the pre-period, 1st-12th hour.
[5] abbreviates: 3 h, 0.3 μM/kg, 1st-3rd hour, read-out: O2 consumption, % of value of the pre-period, 1st-3rd hour.
The mark [6] stands for this setting: 12 h, 0.3 μM/kg, 1st-12th hour, read-out: O2 consumption, % of value of the pre-period, 1st-12th hour.

As to `C[C@H](Cc1ccc(OCCOCc2ccc(Oc3ccccc3)cc2)cc1)N(C[C@H](O)c1ccccc1)C[C@H](O)c1ccccc1` [Example 2e, α,α'-[[[(R)-α-methyl-p-[2-[(p-phenoxybenzyl)oxy]ethoxy]phenethyl]imino]dimethylene]di-(R)-benzyl alcohol], the figures for the response vs control in vivo at 1 µM, 1 µmol/kg in the test with male albino rats (setting [3]) and in the test with male albino rats (setting [4]) were 145% and 116%, respectively.
Take `CCOCCOc1ccc(C[C@@H](C)N(C[C@@H](O)c2cccc(Cl)c2)C[C@H](O)c2ccccc2)cc1` [Example 10a2, (S)-m-chloro-α-[[[(R)-p-(2-ethoxyethoxy)-α-methylphenethyl][(R)-β-hydroxyphenethyl]amino]methyl]benzyl alcohol]: the response vs control in vivo at 3 µM, 3 µmol/kg with male albino rats (setting [3]) was found to be 183%; in the test on male albino rats (setting [4]) it was 141%.
As for `CC(Cc1ccc(OCCOCCc2ccccc2)cc1)N(CC(O)c1cccc(Cl)c1)CC(O)c1cccc(Cl)c1` [Example 2g2, (R)-m-chloro-α-[[[(S)-m-chloro-β-hydroxyphenethyl][(R)-α-methyl-p-[2-phenethoxy)ethoxy]phenethyl]amino]-methyl]benzyl alcohol]], the response vs control in vivo at 1 µM, 1 µmol/kg with male albino rats (setting [3]) amounted to 163%. Besides, the response vs control in vivo at 1 µM, 1 µmol/kg in the test on male albino rats (setting [4]) came out at 131%. The “Urine glucose 2nd week, % of controls” value in test [1] was 68%. In addition, in test [2] (3 μM/Kg per day), the “Urine glucose 1st week” value was found to be 17.7%, the “Urine glucose 2nd week” value was found to be 2.4%, the Blood glucose is listed as 38% and the “Brown adipose tissue (weight of interscapular brown adipose tissue)” value (shortened to “Brown adipose tissue”) was found to be 157%. For the same molecule, in test [2] (30 μM/Kg per day), the “Urine glucose 1st week” value worked out at 1.6%, the “Urine glucose 2nd week” value worked out at 0.6%, the Blood glucose is 33% and the “Brown adipose tissue” value came out at 144%.
For the molecule `C[C@H](Cc1ccc(OCCOCCc2ccccc2)cc1)N(C[C@H](O)c1ccccc1)C[C@H](O)c1ccccc1` [Example 1, α,α'-[[[(R)-α-methyl-p-[2-(phenethoxy)ethoxy]phenethyl]imino]dimethylene]di-(R)-benzyl alcohol], the response vs control in vivo at 1 µM, 1 µmol/kg in the test on male albino rats (setting [3]) amounted to 147%; with male albino rats (setting [4]), 117%.
As to `C[C@H](Cc1ccc(OCCOCCc2ccc(F)cc2)cc1)N(C[C@H](O)c1ccccc1)C[C@H](O)c1ccccc1` [Example 2c], the response vs control in vivo at 1 µM, 1 µmol/kg in the test on male albino rats (setting [3]) is 167%; in the test with male albino rats (setting [4]), 122%.
Turning to `COC(=O)C=CCOc1ccc(C[C@@H](C)N(C[C@H](O)c2ccccc2)C[C@H](O)c2ccccc2)cc1` [Example 4], in the test with male albino rats (0.3 μM/kg, 1st-3rd hour), the “O2 consumption, % of value of the pre-period, 1st-3rd hour” value was 123%. Also, the “O2 consumption, % of value of the pre-period, 1st-12th hour” value in the test on male albino rats (0.3 μM/kg, 1st-12th hour) is on record as 110%.
`CCOCCOc1ccc(CCN(C[C@H](O)c2cccc(Cl)c2)C[C@H](O)c2cccc(Cl)c2)cc1` [Example 8d, α,α'-[[[p-(2-ethoxyethoxy)phenethyl]imino]dimethylene]bis[(R)-m-chlorobenzyl alcohol]]: the response vs control in vivo at 3 µM, 3 µmol/kg in the test on male albino rats (setting [3]) worked out at 172%; in the test on male albino rats (setting [4]), 147%.
The corresponding values for `C[C@H](Cc1ccc(OCCOCCc2ccccc2)cc1)N(C[C@@H](O)c1cccc(Cl)c1)C[C@@H](O)c1cccc(Cl)c1` [Example 2g3] are 138% and 119%.
Take `COCCOCCOc1ccc(C[C@@H](C)N(C[C@H](O)c2ccccc2)C[C@H](O)c2ccccc2)cc1` [Example 2b]: the response vs control in vivo at 1 µM, 1 µmol/kg in the test on male albino rats (setting [3]) stood at 166%; in the test with male albino rats (setting [4]), 119%.
In the case of `CCOCCOc1ccc(C[C@@H](C)N(C[C@H](O)c2ccccc2)C[C@H](O)c2ccccc2)cc1` [Example 2a, α,α'-[[[(R)-p-(2-ethoxyethoxy)-α-methylphenethyl]imino]dimethylene]di-(R)-benzyl alcohol], the response vs control in vivo at 0.3 µM, 0.3 µmol/kg in the test on male albino rats (setting [5]) is 152%; with male albino rats (setting [6]), 114%.
For the molecule `O[C@H](CN(CCc1ccc(OCCOCCc2ccccc2)cc1)C[C@H](O)c1cccc(Cl)c1)c1cccc(Cl)c1` [Example 12a, (R)-m-chloro-α-[[[(S)-m-chloro-β-hydroxyphenethyl]-[p-[2-(phenethoxy)ethoxy]phenethyl]amino]methyl]benzyl alcohol], the values for the response vs control in vivo at 1 µM, 1 µmol/kg in the test with male albino rats (setting [3]) and in the test with male albino rats (setting [4]) were 143% and 116%, respectively.
Regarding `C[C@H](Cc1ccc(OCCOCCc2ccccc2)cc1)N(C[C@H](O)c1cccc(Cl)c1)C[C@H](O)c1cccc(Cl)c1` [Example 2g1, α,α'-[[[(R)-α-methyl-p-[2-(phenethoxy)ethoxy]phenethyl]imino]dimethylene]bis[(R)-m-chlorobenzyl alcohol]], the response vs control in vivo at 0.3 µM, 0.3 µmol/kg was found to be 137% in the test with male albino rats (setting [5]) and 117% in the test with male albino rats (setting [6]).
In the case of `CCOCCOc1ccc(CCN(C[C@@H](O)c2cccc(Cl)c2)C[C@H](O)c2cccc(Cl)c2)cc1` [Example 11, (R)-m-chloro-α-[[[(S)-m-chloro-β-hydroxyphenethyl][p-(2-ethoxyethoxy)phenethyl]amino]methyl]benzyl alcohol], the values for the response vs control in vivo at 3 µM, 3 µmol/kg in the test with male albino rats (setting [3]) and with male albino rats (setting [4]) were 181% and 140%, respectively.
As for `CCOCCOc1ccc(CCN(C[C@H](O)c2ccccc2)C[C@H](O)c2ccccc2)cc1` [Example 2f, α,α'-[[[p-(2-ethoxyethoxy)phenethyl]imino]dimethylene]di-(R)-benzyl alcohol], in the test on male albino rats (setting [3]), the response vs control in vivo at 1 µM, 1 µmol/kg was 142%. For the same molecule, the response vs control in vivo at 1 µM, 1 µmol/kg in the test with male albino rats (setting [4]) stood at 112%. In addition, in test [2] (9 μM/Kg per day), the “Urine glucose 1st week” value was 43%, the “Urine glucose 2nd week” value is given as 33%, the Blood glucose was found to be 51% and the “Brown adipose tissue” value was found to be 158%. Moreover, in test [2] (90 μM/Kg per day), the “Urine glucose 1st week” value is 4.8%, the “Urine glucose 2nd week” value turned out to be 0.3%, the Blood glucose stood at 34% and the “Brown adipose tissue” value is on record as 163%.
Take `CCOCCOc1ccc(C[C@@H](C)N(C[C@H](O)c2ccccc2)C[C@H](O)c2cccc(Cl)c2)cc1` [Example 10a1, 3-chloro-α,α'-[[[(R)-p-(2-ethoxyethoxy)-α-methylphenethyl]imino]dimethylene]di-(R)-benzyl alcohol]: the response vs control in vivo at 0.3 µM, 0.3 µmol/kg in the test on male albino rats (setting [5]) stood at 154%; in the test with male albino rats (setting [6]), 117%.
